Source: patent publication US8716307B2, “Combination antineoplastic therapy” (The Trustees Of The University of Pennsylvania, priority 2009, dated 2014)

Columns and labels:
Format in all cases: cell-based
[1] = tested on: LN229 cells expressing GFP-LC3; assay: Cell counting of LN229 GFP-LC3 cells (Coulter Z2 particle analyzer, confirmed by trypan blue exclusion); settings: 5 nM rapamycin and/or 5 μM chloroquine, FIG. 1
Method: Cell lines, transfection, and cell counting: LN229 cells were grown in DMEM supplemented with 10% heat-inactivated fetal bovine serum (Gemini Biosciences, Woodland, Calif.), 10 units/ml penicillin/streptomycin, and 2 mM L-glutamine (Invitrogen Corporation). LN229 cells were transfected with lipofectamine 2000 (Invitrogen) according to manufacturer protocol. Stable transfectants were selected with neomycin (Gibco), and high fluorescence clones of LN229 GFP-LC3 were selected by limiting dilution. For all in vitro experiments media+supplements and drugs treatments were changed daily. Cell number was assessed by using a Coulter Z2 particle analyzer and confirmed by trypan blue exclusion.

LN229 GFP-LC3 cells [2] = assay: Fluorescence microscopy of GFP-LC3 puncta (autophagosome accumulation); settings: increasing doses; 48 hours of treatment; FIG. 2
Method: Punctate flouresence indicates the accumulation of LC3-positive autophagosomes.
Fluorescence Microscopy: Cells were grown in sterile glass coverslips and treated in full medium as indicated above. After 48 hours of treatment cells were fixed with 4% paraformaldehyde and imaged using a Nikon upright fluorescent microscope. Images were captured at 100× and representative images were reported.

LN229 GFP-LC3 cells [3] = assay: Electron microscopy of autophagic vesicles; settings: FIG. 3
Description: Cells were postfixed with 2% osmium tetroxide followed by an increasing gradient dehydration step using ethanol and propylene oxide.

| SMILES | cell number [1] | accumulation of LC3-positive autophagosomes (punctate fluorescence) (LN229 GFP-LC3 cells [2]) | autophagosomes in electron micrographs (LN229 GFP-LC3 cells [3]) |
| --- | --- | --- | --- |
| CCN(CC)CCCC(C)Nc1ccnc2cc(Cl)ccc12 (centres unmarked) [chloroquine] | decrease in cell number | accumulated LC3-positive autophagosomes |  |
| CO[C@H]1C[C@@H]2CC[C@@H](C)[C@@](O)(O2)C(=O)C(=O)N2CCCC[C@H]2C(=O)O[C@H]([C@H](C)C[C@@H]2CC[C@@H](O)[C@H](OC)C2)CC(=O)[C@H](C)/C=C(\C)[C@@H](O)[C@@H](OC)C(=O)[C@H](C)C[C@H](C)/C=C/C=C/C=C/1C [rapamycin] | decrease in cell number | accumulated LC3-positive autophagosomes | autophagosomes are observed |
